Among the data in PubChem BioAssay (NCI) are TGI values, retold here.

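Values below derive from 48-hour exposures of cells grown in 96-well plates, with endpoints linearly interpolated between the two concentrations bracketing the appropriate inhibition level. TGI denotes the concentration required for complete inhibition of growth.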

Test in all cases: DTP human tumour cell line panel, 48 h
Test [1] has as its system DMS 114 small cell lung.
Test [2] relates to M19-MEL melanoma.
In test [3] the test system is LXFL 529 NSCLC.
Test [4] concerns DLD-1 colon.
Test [5] deals with DMS 273 small cell lung.
In test [6] the test system is HOP-18 NSCLC.
The test system of test [7] is KM20L2 colon.

One may read the TGI as the concentration giving total growth inhibition. A lower TGI goes with more potent growth arrest. As to `Cc1cc2c3ccccc3n(C)c2c2c1C(=O)c1ccccc1C2=O`, the total growth inhibition concentration (TGI) in test [1] was determined as 46 µM; in test [2], 10.3 µM; in test [3], 35.5 µM; in test [4], 31.8 µM; in test [5], 50.1 µM.
For `COC(=O)C(C(=O)C(=O)Nc1cccc(O)c1)c1nc2ccc(Cl)cc2[nH]c1=O` (stereo unspecified), the TGI in test [1], in test [2], in test [3], in test [4], in test [6] and in test [7] was over 100 µM in each case.
For the compound `Cc1ccc2nc3c(Cl)cc(=O)cc-3sc2c1`, the total growth inhibition concentration (TGI) in test [1] came out at 48.1 µM; in test [2], 36 µM; in test [3], 63.1 µM; in test [5], 39.3 µM.
With `CC1=C(C(=O)Nc2cccc(C(F)(F)F)c2)C(c2ccc(O)cc2)C(C(=O)Nc2cccc(C(F)(F)F)c2)=C(C)N1`, the TGI in test [1] stood at 45.8 µM; in test [2], 40.3 µM; in test [3], 55.3 µM; in test [4] it was 73.3 µM; in test [7], 54.6 µM.
`N=C(N)n1ncc(Cl)c(Cl)c1=O`: the TGI in test [1] was 3.66 µM; in test [2], 3.77 µM; in test [3], 3.31 µM; in test [4], 5.24 µM; in test [5], 4.78 µM; in test [6], 2.86 µM. This compound had a total growth inhibition concentration (TGI) in test [7] of 19.3 µM.
Turning to `O=C(c1cc(=O)c2ccc(O)cc2o1)c1ccc(Cl)cc1Cl`, the TGI was over 64 µM in test [1]; over 100 µM in test [2]; over 100 µM in test [4]; over 31.6 µM in test [5]; over 100 µM in test [6]; over 100 µM in test [7].
For `CCOC(=O)C1=C(Nc2ccccc2)OC/C1=N\NC(=O)Cc1ccccc1`, the TGI in test [1], in test [2], in test [3], in test [4], in test [6] and in test [7] was over 50 µM each time.
For `CCOc1ccccc1NC(=O)C(=O)CC(=O)C1=C(C)Nc2ccccc2S1`, the total growth inhibition concentration (TGI) in test [2], in test [3], in test [4], in test [5] and in test [7] was over 100 µM throughout.
`NC(=O)c1ccccc1NC(=O)C(=O)C(C(=O)c1ccc2ccccc2c1)C1OC(=O)c2ccccc21` (stereo unspecified): the concentration for total growth inhibition (TGI) in test [2] is 25.5 µM; in test [3], 21.9 µM; in test [5] it was 38.5 µM; in test [6], 22.7 µM; in test [7], 81.4 µM.
On to `O=C(c1cc2ccccc2[nH]1)C(O)(c1cc2ccccc2[nH]1)c1cc2ccccc2[nH]1`, for which the total growth inhibition concentration (TGI) in test [1], in test [3], in test [4], in test [5] and in test [7] was over 246 µM in each case.
`Cc1cc(C)nc(NS(=O)(=O)c2ccc(Nc3c4ccccc4nc4c(C(=O)NCCN(C)C)ccc(Cl)c34)cc2)n1`: the TGI in test [1] is 3.94 µM; in test [2] it was 7.84 µM; in test [3] it was 4.06 µM; in test [4], 13.4 µM; in test [7], 12 µM.
For `C/C=C/C=N/N(c1nnc(-c2ccccc2)c(-c2ccccc2)n1)S(=O)(=O)c1ccc(C)cc1`, the TGI in test [1] came out at 37.6 µM; in test [2], 36.3 µM; in test [3] it was 19.3 µM; in test [4], 32.7 µM; in test [5], 29.8 µM; in test [6], 27.4 µM. The compound further came in with a TGI in test [7] of 26.1 µM.
With `CC(=O)NNc1nc(C)c(C(=O)NNC(=O)C(=O)Nc2ccc(C)c(C)c2)s1`, the concentration for total growth inhibition (TGI) in test [1], in test [2], in test [3], in test [4], in test [5] and in test [6] was over 100 µM throughout. For the same compound, the TGI in test [7] was over 100 µM.
For the compound `O=c1[nH]c(=S)[nH]c2c1sc(=S)n2-c1ccccc1`, the TGI in test [1], in test [2], in test [3], in test [4], in test [5] and in test [6] was over 100 µM each time. Also, the TGI in test [7] is over 100 µM.
Take `COC(=O)CCC(NC(=S)N/N=C(\C)c1ccccn1)C(=O)OC` (stereo unspecified): the concentration for total growth inhibition (TGI) was 75.8 µM in test [1]; over 100 µM in test [2]; over 100 µM in test [3]; over 100 µM in test [4]; over 100 µM in test [6]; over 100 µM in test [7].
Consider `Cc1c2ccccc2c(C)c2c3c(ccc12)C(=O)C=CC3=O`, for which the TGI in test [1] was 25.8 µM; in test [2], 35.8 µM; in test [3] it was 31.5 µM; in test [4], 40.8 µM; in test [5], over 100 µM; in test [6] it was over 69.3 µM. For the same compound, the concentration for total growth inhibition (TGI) in test [7] was over 100 µM.
On to `CC(C)c1cc(C(C)C)c(S(=O)(=O)NN)c(C(C)C)c1`, for which the TGI in test [1], in test [2], in test [4], in test [5], in test [6] and in test [7] was over 100 µM each time.
`C=C1C(=O)OC2CCCCC3OC3C12` (stereo unspecified): the concentration for total growth inhibition (TGI) worked out at 35.1 µM in test [2]; 20.2 µM in test [3]; 23.4 µM in test [4]; 23.8 µM in test [5]; 23.3 µM in test [6]; 22.8 µM in test [7].
Consider `O=C(NCCCN1CCN(CCCNC(=O)c2cnc3ccccc3n2)CC1)c1cnc2ccccc2n1`, for which the total growth inhibition concentration (TGI) in test [1], in test [2], in test [3], in test [4], in test [5] and in test [6] was over 100 µM in each case. The compound further showed a total growth inhibition concentration (TGI) in test [7] of over 100 µM.
Consider `O=C(CCc1nnc2s/c(=C\c3ccccc3)c(=O)n12)Nc1cc(Cl)ccc1Cl`, for which the TGI in test [1], in test [2], in test [3], in test [4], in test [5] and in test [6] was over 100 µM in each case. Also, the total growth inhibition concentration (TGI) in test [7] was over 100 µM.
Take `COc1ccc(/C=C/c2cc(OC)c(O[Si](C)(C)C(C)(C)C)c(OC)c2)cc1`: the total growth inhibition concentration (TGI) in test [1], in test [2], in test [3], in test [4], in test [5] and in test [7] was over 100 µM throughout.
For `C/C(=N\NC(=O)CC(=O)Nc1ccc(C)cc1)c1cc2ccccc2oc1=O`, the TGI in test [1], in test [2], in test [4], in test [5], in test [6] and in test [7] was over 100 µM each time.
As to `COc1ccc(/C=C2\N=C(c3ccccc3)OC2=O)c(OCc2ccccc2)c1`, the TGI is 92.3 µM in test [1]; over 100 µM in test [2]; over 100 µM in test [3]; 77.2 µM in test [4]; over 100 µM in test [5]; over 100 µM in test [6]. The same compound came in with a TGI in test [7] of over 100 µM.
With `COc1ccc(/C=C/C(=O)c2sc(N)nc2C)cc1`, the concentration for total growth inhibition (TGI) in test [1], in test [2], in test [4], in test [5], in test [6] and in test [7] was over 100 µM throughout.
Consider `Nc1nnc2nc(CC(=O)/C=C/c3ccccc3)c(=O)[nH]n12`, for which the TGI in test [1], in test [2], in test [3], in test [4], in test [5] and in test [7] was over 100 µM throughout.
Regarding `NC(=S)N/N=C(/CC(=O)c1ccc([N+](=O)[O-])cc1)C(=O)Nc1ncc([N+](=O)[O-])s1`, the TGI in test [1], in test [2], in test [3], in test [4] and in test [7] was over 100 µM each time.
Take `CN(C)CCNC(=O)c1cccc2nc3ccc4ccccc4c3nc12`: the concentration for total growth inhibition (TGI) in test [1] is 0.293 µM; in test [2] it was 0.224 µM; in test [4], 1.46 µM; in test [5], 0.246 µM; in test [6] it was 0.446 µM.
With `C/C(=N/O)C1CC=C(S(=O)(=O)c2ccccc2)C1` (stereo unspecified), the TGI in test [2], in test [3], in test [4], in test [5] and in test [7] was over 100 µM throughout.
For the compound `O=C(CC(=O)N1N=C(n2ccc3ccccc32)CC1c1ccccc1)Nc1cccc(Cl)c1` (stereo unspecified), the TGI in test [2], in test [3], in test [4], in test [5], in test [6] and in test [7] was over 100 µM each time.
Take `CCc1cccc(C(C)CC)c1N=C(NC(=O)c1ccccc1C(=O)NC(=Nc1c(CC)cccc1C(C)CC)SC)SC` (stereo unspecified): the TGI is over 100 µM in test [2]; over 100 µM in test [3]; over 100 µM in test [4]; over 100 µM in test [6]; 79.6 µM in test [7].
